Source: ChEMBL document CHEMBL1201862, “PubChem BioAssay data set” (2004)
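Five compound concentrations were applied to cells in 96-well plates for 48 hours; endpoints were derived by simple linear interpolation of the resulting dose-response curve. GI50: concentration for 50% inhibition of growth.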 Calls of active or inactive are those of the source. Cut-off read from the data, not from the text of the source: active = GI50 up to about 1.1 µM and inactive = higher.

Columns and labels:
Experiment in all cases: NCI tumour cell line growth inhibition, 48 h
[1] = test system: A498
[2] = test system: OVCAR-3
[3] = test system: MDA-MB-231
[4] = test system: CCRF-CEM
[5] = test system: LOX IMVI
[6] = test system: KM12
[7] = test system: SF-268
[8] = test system: MDA-N
[9] = test system: EKVX
[10] = test system: BT-549
[11] = test system: IGROV-1
[12] = test system: U-251
[13] = test system: HT-29
[14] = test system: UACC-62
[15] = test system: HCC 2998
[16] = test system: OVCAR-5
[17] = test system: CAKI-1
[18] = test system: UO-31
[19] = test system: A549
[20] = test system: NCI-H522
[21] = test system: TK-10
[22] = test system: NCI/ADR-RES
[23] = test system: RPMI-8226
[24] = test system: NCI-H23
[25] = test system: Malme-3M
[26] = test system: M14
[27] = test system: SK-MEL-5
[28] = test system: PC-3
[29] = test system: RXF 393
[30] = test system: ACHN
[31] = test system: SK-OV-3
[32] = test system: NCI-H226
[33] = test system: HOP-92
[34] = test system: MDA-MB-435
[35] = test system: SK-MEL-28
[36] = test system: NCI-H460
[37] = test system: SR
[38] = test system: HOP-62
[39] = test system: SF-539
[40] = test system: K562
[41] = test system: DU-145
[42] = test system: COLO 205
[43] = test system: HCT-15
[44] = test system: SF-295
[45] = test system: 786-0
[46] = test system: OVCAR-4
[47] = test system: HCT-116
[48] = test system: HL-60
[49] = test system: UACC-257
[50] = test system: SN12C
[51] = test system: OVCAR-8
[52] = test system: SNB-75
[53] = test system: SK-MEL-2
[54] = test system: MCF7
[55] = test system: T47D
[56] = test system: MOLT-4
[57] = test system: SNB-19
[58] = test system: SW-620
[59] = test system: Hs-578T

CCOP(=O)(OCC)C(Nc1cccc([N+](=O)[O-])c1)c1ccccc1 (stereo not drawn)
GI50 [1]: > 100 µM (inactive)
GI50 [2]: > 100 µM (inactive)
GI50 [3]: 58.9 µM (inactive)
GI50 [4]: 68.1 µM (inactive)
GI50 [5]: 73.3 µM (inactive)
GI50 [6]: > 100 µM (inactive)
GI50 [7]: > 100 µM (inactive)
GI50 [8]: > 100 µM (inactive)
GI50 [9]: 62.2 µM (inactive)
GI50 [10]: > 100 µM (inactive)
GI50 [11]: 0.108 µM (active)
GI50 [12]: > 100 µM (inactive)
GI50 [13]: 75 µM (inactive)
GI50 [14]: 58.2 µM (inactive)
GI50 [15]: > 100 µM (inactive)
GI50 [16]: > 100 µM (inactive)
GI50 [17]: > 100 µM (inactive)
GI50 [18]: 48.8 µM (inactive)
GI50 [19]: 57.1 µM (inactive)
GI50 [20]: 90.2 µM (inactive)
GI50 [21]: > 100 µM (inactive)
GI50 [22]: 97.1 µM (inactive)
GI50 [23]: 76.7 µM (inactive)
GI50 [24]: > 100 µM (inactive)
GI50 [25]: 40.1 µM (inactive)
GI50 [26]: > 100 µM (inactive)
GI50 [27]: 64.3 µM (inactive)
GI50 [28]: 38.6 µM (inactive)
GI50 [29]: 88.3 µM (inactive)
GI50 [30]: > 100 µM (inactive)
GI50 [31]: > 100 µM (inactive)
GI50 [32]: > 100 µM (inactive)
GI50 [33]: 62.4 µM (inactive)
GI50 [34]: > 100 µM (inactive)
GI50 [35]: > 100 µM (inactive)
GI50 [36]: 80 µM (inactive)
GI50 [37]: > 100 µM (inactive)
GI50 [38]: > 100 µM (inactive)
GI50 [39]: > 100 µM (inactive)
GI50 [40]: 38.2 µM (inactive)
GI50 [41]: > 100 µM (inactive)
GI50 [42]: 34.6 µM (inactive)
GI50 [43]: 71.6 µM
GI50 [44]: > 100 µM (inactive)
GI50 [45]: > 100 µM (inactive)
GI50 [46]: > 100 µM (inactive)
GI50 [47]: 65 µM (inactive)
GI50 [48]: 39.9 µM (inactive)
GI50 [49]: 72.1 µM (inactive)
GI50 [50]: > 100 µM (inactive)
GI50 [51]: > 10 µM (inactive)
GI50 [52]: 71.9 µM (inactive)
GI50 [53]: 82.4 µM (inactive)
GI50 [54]: > 100 µM (inactive)
GI50 [55]: 18.8 µM (inactive)
GI50 [56]: 39.4 µM (inactive)
GI50 [57]: > 100 µM (inactive)

C[P+](c1ccccc1)(c1ccc(Cl)cc1)c1ccc(Cl)cc1
GI50 [1]: 27.5 µM (inactive)
GI50 [2]: 0.183 µM (active)
GI50 [3]: 13.2 µM (inactive)
GI50 [5]: 11.1 µM (inactive)
GI50 [58]: 18.5 µM (inactive)
GI50 [7]: 38.6 µM (inactive)
GI50 [9]: 21.3 µM (inactive)
GI50 [10]: 21.3 µM (inactive)
GI50 [11]: 4.94 µM (inactive)
GI50 [12]: 16.3 µM (inactive)
GI50 [59]: 20.7 µM (inactive)
GI50 [13]: 4.44 µM (inactive)
GI50 [14]: 10.1 µM (inactive)
GI50 [15]: 8.61 µM (inactive)
GI50 [16]: 18.2 µM (inactive)
GI50 [18]: 38 µM (inactive)
GI50 [19]: 32.4 µM (inactive)
GI50 [20]: 12.9 µM (inactive)
GI50 [21]: 14.2 µM (inactive)
GI50 [22]: > 100 µM (inactive)
GI50 [23]: 0.432 µM (active)
GI50 [24]: 12.3 µM (inactive)
GI50 [25]: 4.19 µM (inactive)
GI50 [26]: 11.6 µM (inactive)
GI50 [27]: 2.84 µM (inactive)
GI50 [28]: 20.2 µM (inactive)
GI50 [29]: 46.2 µM (inactive)
GI50 [30]: 29.1 µM (inactive)
GI50 [31]: 37.2 µM (inactive)
GI50 [32]: 24.3 µM (inactive)
GI50 [33]: 10.3 µM (inactive)
GI50 [34]: 5.45 µM (inactive)
GI50 [35]: 10 µM (inactive)
GI50 [36]: 24.2 µM (inactive)
GI50 [38]: 19.5 µM (inactive)
GI50 [39]: 19.8 µM (inactive)
GI50 [40]: 11.2 µM (inactive)
GI50 [41]: 18.4 µM (inactive)
GI50 [42]: 10.4 µM (inactive)
GI50 [43]: 88.9 µM
GI50 [45]: 31.3 µM (inactive)
GI50 [46]: 13.2 µM (inactive)
GI50 [47]: 6.93 µM (inactive)
GI50 [49]: 8.11 µM (inactive)
GI50 [50]: 15.6 µM (inactive)
GI50 [51]: 14.7 µM (inactive)
GI50 [52]: 14.4 µM (inactive)
GI50 [53]: 19.9 µM (inactive)
GI50 [54]: 26.9 µM (inactive)
GI50 [55]: 7.6 µM (inactive)
GI50 [57]: 13 µM (inactive)
